Data set [1] has as its target T1, Purine nucleoside phosphorylase (Homo sapiens) (UniProt P00491).
T1 sequence (whole entry): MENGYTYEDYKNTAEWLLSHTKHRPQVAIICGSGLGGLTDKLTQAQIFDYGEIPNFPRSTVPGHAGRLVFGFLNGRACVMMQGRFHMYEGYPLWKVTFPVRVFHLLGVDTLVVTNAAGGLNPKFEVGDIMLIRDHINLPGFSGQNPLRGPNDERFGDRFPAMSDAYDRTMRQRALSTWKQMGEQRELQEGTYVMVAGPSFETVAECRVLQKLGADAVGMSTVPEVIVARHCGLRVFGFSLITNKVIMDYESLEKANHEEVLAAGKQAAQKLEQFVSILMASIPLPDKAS
Description: Binding affinity to human PNP assessed as kinetic isotope effect. To be noted: tested as the 3H-labelled form.

Data set [2] addresses T2, Purine nucleoside phosphorylase (Homo sapiens, UniProt P00491).
T2 sequence (P00491 whole entry): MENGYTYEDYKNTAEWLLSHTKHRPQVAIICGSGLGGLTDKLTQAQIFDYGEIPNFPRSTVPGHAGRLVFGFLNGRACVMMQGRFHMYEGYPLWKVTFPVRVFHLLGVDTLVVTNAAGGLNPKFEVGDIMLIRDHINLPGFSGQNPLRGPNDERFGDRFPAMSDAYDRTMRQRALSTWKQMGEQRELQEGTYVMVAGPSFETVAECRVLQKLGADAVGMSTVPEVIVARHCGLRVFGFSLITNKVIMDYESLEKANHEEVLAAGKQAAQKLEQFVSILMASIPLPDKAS
The data set is described as follows: Binding affinity to human PNP.

Substrate in data set [3]: O=c1[nH]cnc2c1ncn2[C@@H]1O[C@H](CO)[C@@H](O)[C@H]1O
Description: Activity at human PNP.

In the case of `O=c1[nH]cnc2c1ncn2[C@@H]1O[C@H](CO)[C@@H](O)[C@H]1O`, the Activity in data set [1] came out at 4.7%. The Kd is the constant that tells how readily two partners part at equilibrium. Low readings indicate tighter binding, high ones weaker binding. On to `[3H]C(O)[C@H]1CN(Cc2c[nH]c3c(=O)[nH]cnc23)C[C@@H]1O` (stereo partly drawn), for which the Kd in data set [2] stood at 8.5 pM.

B1: Purine nucleoside phosphorylase (Homo sapiens), P00491 (protein)
chain: MENGYTYEDYKNTAEWLLSHTKHRPQVAIICGSGLGGLTDKLTQAQIFDYGEIPNFPRSTVPGHAGRLVFGFLNGRACVMMQGRFHMYEGYPLWKVTFPVRVFHLLGVDTLVVTNAAGGLNPKFEVGDIMLIRDHINLPGFSGQNPLRGPNDERFGDRFPAMSDAYDRTMRQRALSTWKQMGEQRELQEGTYVMVAGPSFETVAECRVLQKLGADAVGMSTVPEVIVARHCGLRVFGFSLITNKVIMDYESLEKANHEEVLAAGKQAAQKLEQFVSILMASIPLPDKAS
Usually Km stands for the concentration of substrate that gives half-maximal velocity. On to B1, for which, in data set [3], the Km was determined as 40 µM.

Source of the values: ChEMBL document CHEMBL1212725, “Enzymatic transition states and dynamic motion in barrier crossing” (Nat Chem Biol, 2009).
